Assays:
[1] = tested on: G6PI peptide induced arthritis in DBA/1 mice; test: G6PI peptide induced arthritis, transfer of monocytes from naive mice pre-incubated with MCTR3; format: in vivo, mouse; settings: monocytes incubated with 10 μM RG108 for 15 min before 1 nM MCTR3
Experimental: FIG. 3: MCTR3 reprograms monocyte responses to reduce inflammation and repair inflamed joints. (A-B) Antigen induced arthritis was initiated by administering G6PI peptide (10 μg/mouse) in CFA via intradermal injection to DBA/1 mice. After 25 days mice were treated with 0.5×10^6 monocytes from naive mice that had been pre-incubated with vehicle (PBS+0.1% EtOH) or 1 nM MCTR3 for 90 min at 37° C. via i.v. injection. Disease course was monitored daily by assessing A) clinical scores and B) oedema. Results are mean±SEM and expressed as percent change from day of treatment n=5 per group from two separate experiments. Results are mean±SEM. Statistical differences were calculated using a Two-way ANOVA.
FIG. 11: DNA methyltransferase inhibition prevents MCTR3 reprogramming of protective monocyte responses. […] Disease course was assessed by evaluating A) clinical scores and B) oedema relative to the day of treatment. Results are mean±SEM and expressed as percentage change from day of treatment. n=5 per group and statistics were calculated using a Two-way ANOVA. […]

arthritic femur heads = test: Organ culture of arthritic femur heads with monocyte-derived macrophages, Safranin-O staining; format: cell-based, mouse; settings: monocytes incubated with 10 μM RG108 for 45 min before 1 nM MCTR3
Experimental: FIG. 6: Arg-1 mediates the anti-inflammatory and cartilage protective activities of MCTR3-trained monocytes. (A,B) Femur heads and bone marrow-derived monocytes were collected 5 days following the induction of arthritis in C57BL/6 mice. Femur heads were incubated in serum free DMEM high glucose containing 1% insulin-transferrin-selenium for 48 hours and then in DMEM containing 10% FBS and 10 ng/ml IL-1B for 4 days. Monocytes were incubated with vehicle (PBS+0.1% EtOH) or 1 nM MCTR3 for 24 hours, then differentiated to monocyte-derived macrophages. Two days after the initiation of differentiation, cells were transfected with control siRNA or siRNA against Arg-1. […] Tissues were then collected and glycosaminoglycan content was evaluated using Safranin-O staining. (A) Representative images and (B) quantitation of Safranin-O staining. […] Statistical differences were evaluated using Wilcoxon signed rank test when assessing for differences vs Vehicle group and using one-way ANOVA and Kruskal Wallis post hoc test when evaluating differences vs MCTR3 treated group.
FIG. 12: DNMT enzyme inhibition reverses the ability of MCTR3 to upregulate Arg-1 in MDM and the cartilage protective activities of MCTR3-trained monocytes. […] The proteoglycan concentrations in the femur heads were assessed using Safranin O staining. […] Statistical differences were evaluated using one-sample Wilcoxon signed rank test. […]

## O=C(O)C(Cc1c[nH]c2ccccc12)N1C(=O)c2ccccc2C1=O (centres unmarked) [RG108]
[1]
  protective actions of MCTR3 (ability of reprogrammed monocytes to regulate joint inflammation): abolished
Arthritic femur heads
  cartilage protective activities of MCTR3-trained monocytes: reverses
